According to ChEMBL document CHEMBL3727361, “Nitrogen bicyclic compounds as inhibitors for Scyl1 and Grk5” (2014):

The molecules below were run on Beta-TC6 (assay: Increase in insulin release in mouse BetaTC6 cells assessed as relative insulin release activity at 10 uM incubated for 2 to 4 hrs by FRET based HTRF assay relative to sunitinib).
Format: functional

In order of rising Activity:
1. COc1cccc(CC(=O)Nc2cnc3cnc(-c4cnn(C)c4)cn23)c1  10%
2. O=S1(=O)CCN(CC#Cc2ccc3nnc(-c4cscn4)n3c2)CC1  10%
3. CSc1ccc(-c2cnc3cccnn23)cc1  10%
4. COc1ccc(CNc2ccc3ncc(-c4ccc(OC)cc4OC)n3n2)cc1  10%
5. c1cncc(CCNc2ccc3ncc(-c4ccc5ccccc5c4)n3n2)c1  10%
6. Cc1ccccc1-c1cnc2cnc(-c3cccs3)cn12  10%
7. Cc1cc(-c2cnc3cccnn23)cc(C)c1O  10%
8. FC(F)(F)c1cccc(C#Cc2ccc3nnc(-c4ccncc4)n3c2)c1  10%
9. CN(C)/C(=C1\N=C(c2ccccc2)OC1=O)c1cnc2cccnn12  10%
10. CC(=O)Nc1cccc(-c2cnc3ccc(NCc4ccc(F)cc4)nn23)c1  10%
11. CS(=O)(=O)Nc1cccc(-c2cnc3ccc(Cc4ccc(F)cc4)nn23)c1  10%
12. COc1cccc(CC(=O)Nc2cnc3cnc(-c4ccc(Oc5ccccc5)cc4)cn23)c1  10%
13. CC(C)(C)c1ccc(-c2cnc3cnc(-c4ccc(N)nc4)cn23)cc1  10%
14. O=C(NCCO)c1ccc(-c2cnc3cccnn23)cc1  10%
15. CCOc1ccc(-c2cnc3cccnn23)cc1  10%
16. Brc1cnc2ccc(NCCCN3CCOCC3)nn12  10%
17. Oc1cccc(-c2cnc3ccc(-c4cccc5ncccc45)nn23)c1  10%
18. CN(C)CCCOc1ccc(-c2nnc3ccc(-c4ccc(Cl)cc4)cn23)cc1  20%
19. CN1CCN(C(=O)c2cccc(-c3cnc4cnc(-c5ccccc5Oc5ccccc5)cn34)c2)CC1  20%
20. FC(F)(F)c1cccc(-c2cnc3ccc(-c4ccncc4)nn23)c1  20%
21. OCc1cccc(-c2ccc3nnc(-c4ccccn4)n3c2)c1  20%
22. Oc1cccc(-c2cnc3cnc(-c4ccc(Cl)cc4)cn23)c1  20%
23. CN(C)c1ccc(-c2cnc3cnc(-c4cccc(NS(C)(=O)=O)c4)cn23)cc1  20%
24. Fc1cccc(-c2cnc3cnc(-c4cccs4)cn23)c1  20%
25. Fc1cccc(-c2cnc3cnc(-c4ccccc4)cn23)c1  20%
26. COc1cccc(-c2cn3c(NC(=O)Cc4ccsc4)cnc3cn2)c1  20%
27. N#Cc1ccc(-c2cnc3cnc(-c4ccc(CO)cc4)cn23)cc1  20%
28. Clc1cccc(-c2ccc3nnc(-c4ccc5c(c4)OCO5)n3c2)c1  20%
29. c1ccc(-c2cnc3cnc(-c4ccsc4)cn23)cc1  20%
30. CC(=O)Nc1cccc(-c2cn3c(-c4ccc(C(=O)N(C)C)cc4)cnc3cn2)c1  20%
31. CN1CCN(c2ccc(-c3cn4c(-c5cccc(O)c5)cnc4cn3)cc2)CC1  20%
32. Nc1ccc(-c2ccc3nnc(-c4cccc(C(F)(F)F)c4)n3c2)cn1  20%
33. CN(C)C(=O)c1ccc(-c2ccc3nnc(-c4cccc(C(F)(F)F)c4)n3c2)cc1  20%
34. O=C(NCCO)c1cccc(-c2cn3c(-c4cccc(OC(F)(F)F)c4)cnc3cn2)c1  20%
35. Oc1cccc(-c2ccc3ncc(-c4cccc(C(F)(F)F)c4)n3n2)c1  20%
36. O=C(O)CCc1ccc(-c2cnc3cnc(-c4cccc(Cl)c4)cn23)cc1  20%
37. COc1cc(-c2nnc3ccc(-c4ccc(N5CCN(C)CC5)cc4)cn23)ccc1O  20%
38. CC(=O)Nc1ccc(-c2ccc3nnc(-c4cccc(Cl)c4)n3c2)cc1  20%
39. CN(C)c1ccc(-c2cnc3cnc(-c4cccc(C(=O)NCCO)c4)cn23)cc1  20%
40. COc1cccc(CC(=O)Nc2cnc3cnc(-c4cccs4)cn23)c1  20%
41. COc1ccc(-c2cnc3cnc(-c4cccs4)cn23)cc1  20%
42. CN1CCN(C(=O)c2cccc(-c3cnc4cnc(-c5ccc6c(ccn6C)c5)cn34)c2)CC1  20%
43. OCc1ccc(-c2cn3c(-c4cccc(F)c4)cnc3cn2)cc1  20%
44. CC(C)Oc1cccc(-c2cn3c(-c4cccs4)cnc3cn2)c1  20%
45. Cc1ccc(CNc2ccc3ncc(-c4ccc(O)cc4)n3n2)c(C)c1  20%
46. COc1ccc(-c2ccc3nnc(-c4ccncc4)n3c2)cc1OC  20%
47. OCc1ccc(-c2ccc3nnc(-c4ccncc4)n3c2)cc1  20%
48. N#Cc1cccc(-c2nnc3ccc(-c4ccccn4)cn23)c1  20%
49. COc1cc(-c2cn3c(-c4ccccc4Cl)cnc3cn2)ccc1O  20%
50. COc1ccccc1CC(=O)Nc1cnc2cnc(-c3cccc(Cl)c3Cl)cn12  20%
51. COc1cccc(C#Cc2ccc3nnc(-c4cccc(OC(F)(F)F)c4)n3c2)c1  20%
52. c1cncc(-c2cnc3cnc(-c4ccc(N5CCOCC5)cc4)cn23)c1  20%
53. Clc1ccc(-c2cnc3cnc(-c4cccs4)cn23)cc1  20%
54. Fc1ccc(-c2ccc3nnc(-c4cscn4)n3c2)cc1Cl  20%
55. Clc1ccc(-c2cnc3cnc(-c4ccncc4)cn23)cc1  20%
56. c1cncc(-c2cnc3ccc(-c4ccoc4)nn23)c1  20%
57. Fc1ccc(-c2ccc3ncc(-c4cccs4)n3n2)cc1Cl  20%
58. CC(C(=O)Nc1cnc2cnc(-c3ccc4c(c3)OCO4)cn12)c1ccccc1 (stereo not given)  20%
59. COc1cc(-c2cn3c(-c4ccc5ncccc5c4)cnc3cn2)ccc1O  20%
60. Cn1ccc2cc(-c3cnc4cnc(-c5cccc(C(=O)NCCO)c5)cn34)ccc21  20%
61. CS(=O)(=O)Nc1cccc(-c2cn3c(-c4cccnc4)cnc3cn2)c1  20%
62. Clc1cccc(-c2nnc3ccc(-c4cncnc4)cn23)c1  20%
63. CNC(=O)c1ccc(-c2ccc3nnc(-c4ccc(OCCCN(C)C)cc4)n3c2)cc1  20%
64. Oc1cccc(-c2cnc3ccc(-c4ccc(F)cc4)nn23)c1  20%
65. N#Cc1ccc(-c2cnc3cnc(-c4ccccc4)cn23)cc1  20%
66. CS(=O)(=O)Nc1cccc(-c2cn3c(-c4ccc(Oc5ccccc5)cc4)cnc3cn2)c1  20%
67. FC(F)(F)Oc1cccc(-c2ccc3nnc(-c4ccncc4)n3c2)c1  20%
68. CN(C)c1cccc(-c2cnc3cnc(-c4cccs4)cn23)c1  20%
69. CN1CCN(C(=O)c2cccc(-c3cnc4cnc(-c5cccc(Cl)c5)cn34)c2)CC1  20%
70. CS(=O)(=O)Nc1cccc(-c2cn3c(-c4ccc5ncccc5c4)cnc3cn2)c1  20%
71. CN(C)C(=O)c1ccc(-c2cnc3cnc(-c4ccccc4Oc4ccccc4)cn23)cc1  20%
72. NC(=O)c1cccc(-c2ccc3nnc(-c4cscn4)n3c2)c1  20%
73. COc1ccc(-c2cnc3cnc(-c4cccc(C(N)=O)c4)cn23)cn1  20%
74. OCC#Cc1ccc2nnc(-c3ccc4c(c3)OCO4)n2c1  20%
75. c1cc2c(cc1CNc1ccc3ncc(-c4ccc(N5CCOCC5)cc4)n3n1)OCO2  20%
76. c1csc(-c2cn3c(-c4ccncc4)cnc3cn2)c1  20%
77. c1cncc(-c2cnc3ccc(-c4cccs4)nn23)c1  20%
78. CN(C)C(=O)c1ccc(-c2cnc3cnc(-c4ccsc4)cn23)cc1  20%
79. c1nc(-c2nnc3ccc(-c4ccc(N5CCOCC5)cc4)cn23)cs1  50%
80. c1csc(-c2ccc3nnc(-c4ccoc4)n3c2)c1  50%
81. CN(C)c1ccc(-c2cnc3cnc(-c4ccc(NCCN5CCOCC5)nc4)cn23)cc1  50%
82. CSc1ccccc1-c1cnc2cccnn12  50%
83. Cn1cc(-c2ccc3nnc(-c4ccc5c(c4)OCO5)n3c2)cn1  50%
84. COc1cc(-c2ccc3nnc(-c4ccoc4)n3c2)cc(OC)c1OC  50%
85. c1cc2cc(-c3ccc4nnc(-c5cscn5)n4c3)ccc2[nH]1  50%
86. CS(=O)(=O)Nc1cccc(-c2ccc3nnc(-c4ccccc4)n3c2)c1  50%
87. Oc1cccc(-c2ccc3nnc(-c4ccccn4)n3c2)c1  50%
88. Clc1cccc(-c2nnc3ccc(-c4ccncc4)cn23)c1  50%
89. c1ccc(-c2cn3c(-c4ccc5c(c4)OCO5)cnc3cn2)cc1  50%
90. COc1ccc(-c2ccc3nnc(-c4ccc(O)c(OC)c4)n3c2)cn1  50%
91. Clc1cccc(-c2nnc3ccc(-c4cncc5ccccc45)cn23)c1  50%
92. CC(=O)Nc1cccc(-c2ccc3nnc(-c4ccccc4)n3c2)c1  50%
93. CN(C)c1cccc(-c2cn3c(NC(=O)c4ccccc4)cnc3cn2)c1  50%
94. COc1ccc(-c2nnc3ccc(-c4cccc(C(=O)N(C)C)c4)cn23)cc1OC  50%
95. Clc1ccccc1-c1ccc2nnc(-c3cccnc3)n2c1  50%
96. CN(C)c1cccc(-c2cnc3cnc(-c4ccsc4)cn23)c1  50%
97. COc1ccc(-c2cn3c(-c4ccc(N(C)C)cc4)cnc3cn2)cn1  50%
98. c1ccc(-c2nnc3ccc(-c4ccc5c(c4)OCO5)cn23)cc1  50%
99. COc1cc(-c2nnc3ccc(-c4cccc(F)c4)cn23)ccc1O  50%
100. COc1cncc(-c2ccc3nnc(-c4cccc(OC(F)(F)F)c4)n3c2)c1  50%
101. c1csc(-c2cnc3cnc(-c4ccsc4)cn23)c1  50%
102. c1csc(-c2cn3c(-c4ccsc4)cnc3cn2)c1  50%
103. CC(=O)c1cccc(-c2cnc3cnc(-c4cccs4)cn23)c1  50%
104. CS(=O)(=O)c1cccc(-c2ccc3nnc(-c4cccc(OC(F)(F)F)c4)n3c2)c1  50%
105. COc1cc(-c2ccc3nnc(-c4ccc5nccnc5c4)n3c2)ccc1O  50%
106. Clc1cccc(-c2nnc3ccc(-c4ccc5c(c4)OCO5)cn23)c1  50%
107. COc1cc(OC)cc(-c2cn3c(-c4ccc5c(c4)OCO5)cnc3cn2)c1  50%

`CCOc1cccc(-c2cn3c(-c4ccc(CCC(=O)O)cc4)cnc3cn2)c1` was tested, and the Activity was “>=100%”.
`CC(=O)Nc1ccc(-c2cnc3ccc(-c4ccc5c(c4)OCO5)nn23)cc1` was tested, and the Activity was “>=100%”.
`COc1ccc(-c2ccc3nnc(-c4ccccc4)n3c2)c(C)c1` was tested, and the Activity was “>=100%”.
